# Laboratory results published in patent US20230098667A1, “BENZODIAZEPINE DERIVATIVES, COMPOSITIONS, AND METHODS FOR TREATING COGNITIVE IMPAIRMENT” (priority 2019, published 2023).
# Entries after “also recorded” stand apart in the source; their conditions may differ. Where two headings read alike, the source gives them in different places.
# Key:
# [1] = biological target: T1, GABAA receptors α5β3γ2 (GABA α5) (Homo sapiens, UniProt P18507+P31644); test: Binding activity on GABAAR: inhibition of [3H]Ro15-1788 binding, membranes of Ltk cells; conditions: α5β3γ2 Ltk cell membranes
# T1 construct: membranes
# T1 sequence (P31644 32-462): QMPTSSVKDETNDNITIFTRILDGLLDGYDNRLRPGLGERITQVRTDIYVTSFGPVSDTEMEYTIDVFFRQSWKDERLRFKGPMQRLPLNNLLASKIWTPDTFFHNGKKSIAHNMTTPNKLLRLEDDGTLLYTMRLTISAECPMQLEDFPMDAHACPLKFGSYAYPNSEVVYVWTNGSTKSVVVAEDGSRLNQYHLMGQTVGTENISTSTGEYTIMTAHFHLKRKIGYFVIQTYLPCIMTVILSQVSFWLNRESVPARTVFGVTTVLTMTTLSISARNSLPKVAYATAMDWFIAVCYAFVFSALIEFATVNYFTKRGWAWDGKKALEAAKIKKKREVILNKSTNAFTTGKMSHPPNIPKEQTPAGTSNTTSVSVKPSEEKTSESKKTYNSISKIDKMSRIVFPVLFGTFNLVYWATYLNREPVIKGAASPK
# T1 sequence (P28472 26-473 partner): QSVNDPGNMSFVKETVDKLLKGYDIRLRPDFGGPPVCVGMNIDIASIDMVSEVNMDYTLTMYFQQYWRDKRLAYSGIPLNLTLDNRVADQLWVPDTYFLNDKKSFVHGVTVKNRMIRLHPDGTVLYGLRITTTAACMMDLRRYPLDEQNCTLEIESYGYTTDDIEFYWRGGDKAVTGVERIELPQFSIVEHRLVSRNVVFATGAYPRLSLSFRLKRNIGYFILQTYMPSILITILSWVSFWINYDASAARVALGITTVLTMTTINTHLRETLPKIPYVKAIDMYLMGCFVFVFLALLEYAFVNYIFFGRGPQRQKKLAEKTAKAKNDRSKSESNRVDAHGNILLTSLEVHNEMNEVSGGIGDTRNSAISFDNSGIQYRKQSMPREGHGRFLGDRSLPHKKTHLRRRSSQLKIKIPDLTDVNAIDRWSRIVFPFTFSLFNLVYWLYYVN
# T1 sequence (P18507 40-467 limits assumed): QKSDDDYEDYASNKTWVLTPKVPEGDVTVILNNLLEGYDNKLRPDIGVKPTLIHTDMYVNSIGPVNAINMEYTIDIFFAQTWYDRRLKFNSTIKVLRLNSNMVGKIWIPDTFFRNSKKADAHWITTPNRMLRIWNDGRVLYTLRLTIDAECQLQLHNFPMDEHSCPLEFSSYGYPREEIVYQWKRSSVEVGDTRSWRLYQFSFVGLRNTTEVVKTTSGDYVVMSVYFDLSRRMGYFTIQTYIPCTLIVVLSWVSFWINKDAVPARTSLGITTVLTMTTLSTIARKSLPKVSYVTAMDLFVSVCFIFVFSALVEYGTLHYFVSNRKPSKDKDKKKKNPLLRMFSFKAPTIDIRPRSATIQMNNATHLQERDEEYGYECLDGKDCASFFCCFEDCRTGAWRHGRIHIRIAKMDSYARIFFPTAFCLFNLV
# Protocol: (§1) Tissue culture and Membrane Preparation: The binding was performed on Ltk cells stably expressing GABAA receptors: α1β1γ2, α2β3γ2, α3β3γ2 and α5β3γ2 (provided by Merck Co., NJ, USA). Cells were seeded in 100 mm culture plates in DMEM/F12 medium containing 10% serum and antibiotics in 5% CO2 and allowed to grow for 1-2 days. GABAAR expression was then induced by dexamethasone as follows: 0.5 μM for 1 day for α5 containing and 2 μM for 3 days for α1, α2 and α3 containing GABAARs. After induction, cells were collected by scraping into Dulbecco's Phosphate buffered saline (DPBS, pH 7.4, Invitrogen, Carlsbad, Calif., USA) and centrifuged at 150×g for 10 min. The pellet was washed twice by re-suspension and centrifugation. The cell pellets from at least 5 different preps were combined, suspended in the binding assay buffer (50 mM KH2PO4; 1 mM EDTA; 0.2 M KCl, pH 7.4) and membranes prepared by sonication (3-5 times, 30 sec) using Branson Sonifier 150 (G. Heinmann, Germany). Protein content was determined using BCA assay (Bio-Rad Labs, Reinach, Switzerland) with Bovine Serum Albumin (Sigma Aldrich, St. Louis, Mo., USA) as the standard. Aliquots were prepared and stored at −20° C. for further use in binding assays.
# (§2) Ligand Binding: Saturation binding curves were obtained by incubating membranes with increasing concentrations (0.01-8 nM) of [^3H]Rol5-1788 (Flumazepil, 75-85 Ci/mmol, PerkinElmer, MA, USA), with nonspecific binding measured in the presence of 10 μM diazepam.
# All binding assays were performed for 1 h at 4° C. in assay buffer. The total assay volume was 0.5 ml containing 0.2 mg/ml protein for α5 and 0.4 mg/ml for α1, α2, and α3 containing GABAAR membranes. Incubations were terminated by filtration through GF/B filters using a 24-Cell Harvestor (Brandel, Gaithersburg, Md., USA) followed by 3 washes with ice-cold assay buffer. Filters were transferred to scintillation vials, 5 ml scintillation liquid added, vortex-mixed and kept in dark. Next day, radioactivity was obtained using a scintillation counter (Beckman Coulter, Brea, Calif., USA). All assays were performed in triplicate.
# Data Analyses: Saturation and inhibition curves were obtained using GraphPad Prism software (GraphPad Software, Inc., CA, USA).
# [2] = tested on: GABA α5 versus GABA α1, GABA α2, or GABA α3; test: Binding selectivity from [3H]Ro15-1788 binding on GABAAR subtypes
# Protocol: as §1, with “The cell pellets from at least 5 different preps were combined, suspended in the binding assay buffer (50 mM KH2PO4; 1 mM EDTA; 0.2 M KCl, pH 7.4) and membranes prepared by sonication (3-5 times, 30 sec) using Branson Sonifier 150 (G. Heinmann, Germany).” left out, “Aliquots were prepared and stored at −20° C. for further use in binding assays.” left out
# as §2
# All binding assays were performed for 1 h at 4° C. in assay buffer. […] Next day, radioactivity was obtained using a scintillation counter (Beckman Coulter, Brea, Calif., USA). […]
# GABAA receptors (α5β2γ2) = biological target: T2, GABAA receptors (α5β2γ2) (Homo sapiens, UniProt P18507+P31644); test: Positive allosteric modulator activity: potentiation of EC20 GABA current in oocytes; format: cell-based; conditions: @ 100 nM
# T2 construct: expressed in transfected cells
# T2 sequence (P31644 32-462): T1 sequence (P31644 32-462)
# T2 sequence (P47870 25-512 partner limits assumed): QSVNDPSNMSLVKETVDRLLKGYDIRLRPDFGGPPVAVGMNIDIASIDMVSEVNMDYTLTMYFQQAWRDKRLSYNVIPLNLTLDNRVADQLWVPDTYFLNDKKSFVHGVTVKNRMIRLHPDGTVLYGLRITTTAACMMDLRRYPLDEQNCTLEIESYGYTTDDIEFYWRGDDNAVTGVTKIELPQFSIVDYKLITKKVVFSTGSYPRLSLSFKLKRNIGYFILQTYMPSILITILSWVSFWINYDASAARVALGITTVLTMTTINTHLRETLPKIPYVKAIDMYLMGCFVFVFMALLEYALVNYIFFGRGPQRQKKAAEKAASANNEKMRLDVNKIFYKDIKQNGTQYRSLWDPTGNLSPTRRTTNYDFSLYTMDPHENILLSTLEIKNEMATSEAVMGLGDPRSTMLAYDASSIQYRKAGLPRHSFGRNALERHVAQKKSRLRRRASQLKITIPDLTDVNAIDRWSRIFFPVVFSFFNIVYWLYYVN
# T2 sequence (P18507 40-467 limits assumed): T1 sequence (P18507 40-467 limits assumed)
# Protocol: On day 1, 1 ng/32 nL of GABAA α5β2γ2 cDNA was injected into one oocyte. Test starts on day 2. The cDNA injected to the oocytes was a mix of alpha, beta and gamma, their ratio is 1:1:10 (by weight) and the total weight of the mixed 3 subunits to be injected in one oocyte was 1 ng in 32 nl volume. The injected oocytes can also be tested on day 3. In such case, the cDNA amount injected to the oocytes should be reduced by 20%.
# 1). 8 oocytes were placed in 8 chambers of OpusXpress and superfused with Modified Barth's Saline (MBS) at 3 mL/min. Glass electrodes back-filled with 3M KCl (0.5-3 megaohms) were used. […] 2). […] 3).
# 1). New oocytes were used to run new test. 2). […] 3). […] Oocytes were washed with MBS for 5-10 min. 4). […] Itest was divided by IGABA to obtain potentiation (%).
# 1). Repeat the above steps 1), 2) and 3) in the control test. 2). […] Divide Itest by IGABA to obtain potentiation (%). 3). Discard all tested oocytes, new oocytes were used and the above steps 1) and 2) were repeated to test second concentration of the same compound. Each oocyte was used for only one concentration test for a single test compound. The steps were repeated for other test compounds.
# aged-impaired (AI) rats = test: Radial Arm Maze (RAM) behavioral task, two-hour delay; format: in vivo, rat; conditions: 3 mg/kg ip
# Protocol: The effects of methyl 3,5-diphenylpyridazine-4-carboxylate on the in vivo spatial memory retention of aged-impaired (AI) rats were assessed in a Radial Arm Maze (RAM) behavioral task using vehicle control and four different dosage levels of methyl 3,5-diphenylpyridazine-4-carboxylate (0.1 mg/kg, 0.3 mg/kg, 1 mg/kg and 3 mg/kg, ip). RAM behavioral tasks were performed on eight AI rats. All five treatment conditions (vehicle and four dosage levels) were tested on all eight rats.
# The RAM apparatus used consisted of eight equidistantly-spaced arms. An elevated maze arm (7 cm width×75 cm length) projected from each facet of an octagonal center platform (30 cm diameter, 51.5 cm height). Clear side walls on the arms were 10 cm high and were angled at […] to form a trough. A food well (4 cm diameter, 2 cm deep) was located at the distal end of each arm. Froot Loops™ (Kellogg Company) were used as rewards. Blocks constructed of Plexiglas™ (30 cm height×12 cm width) could be positioned to prevent entry to any arm. Numerous extra maze cues surrounding the apparatus were also provided.
# The AI rats were initially subjected to a pre-training test (Chappell et al. Neuropharmacology 37: 481-487, 1998). […]
# α5-containing GABAA R = biological target: T3, α5-containing GABAA R (Homo sapiens, UniProt P18507+P31644); conditions: cited from earlier work
# T3 sequence (P31644 32-462): T1 sequence (P31644 32-462)
# T3 sequence (P28472 26-473 partner): T1 sequence (P28472 26-473 partner)
# T3 sequence (P18507 40-467 limits assumed): T1 sequence (P18507 40-467 limits assumed)
# GABAA α5 receptor = biological target: T4, GABAA α5 receptor (Rattus norvegicus, UniProt P19969); test: GABAA α5 receptor occupancy with Ro 15-4513 tracer; format: in vivo, Long Evans rats
# T4 construct: from tissue; host or cells: brain of living Long Evans rats; hippocampus and cerebellum dissected after i.v. dosing
# T4 sequence (P19969 32-464 limits assumed): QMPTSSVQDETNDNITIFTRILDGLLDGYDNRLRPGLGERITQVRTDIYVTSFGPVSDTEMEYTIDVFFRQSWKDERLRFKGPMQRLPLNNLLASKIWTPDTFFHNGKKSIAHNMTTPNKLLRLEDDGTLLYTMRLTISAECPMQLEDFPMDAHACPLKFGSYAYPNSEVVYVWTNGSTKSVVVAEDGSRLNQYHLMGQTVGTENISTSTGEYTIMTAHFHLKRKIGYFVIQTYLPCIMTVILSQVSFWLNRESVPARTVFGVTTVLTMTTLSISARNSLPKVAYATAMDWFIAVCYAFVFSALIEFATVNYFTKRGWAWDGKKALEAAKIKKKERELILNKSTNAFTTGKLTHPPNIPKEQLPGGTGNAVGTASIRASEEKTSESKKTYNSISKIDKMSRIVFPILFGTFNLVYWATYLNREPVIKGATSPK
# Excerpt: (§3) Food and water were available ad libitum.
# [3] = format: in vivo, Long Evans rats
# Protocol: as §3
# For plasma exposures, blood samples were centrifuged at 14000 rpm for 16 minutes. After centrifuging, 50 ul of supernatant (plasma) from each sample was added to 200 μl of acetonitrile plus 0.1% formic acid. […] Samples were sonicated for 5 minutes in an ultrasonic water bath, followed by centrifugation for 30 minutes, at 16000 RPM. 100 ul of supernatant was removed from each sample vial and placed in a new glass auto sample vial, followed by the addition of 300 μl of sterile water (pH 6.5).
# Additional studies were conducted in aged Long-Evans rats in order to determine the exposures at the behaviorally relevant doses in the cognition studies. Exposure in young Long-Evans rats was also determined to bridge with the receptor occupancy studies that were conducted in young Long-Evans rats. Exposures in young and aged Long-Evans rats were relatively similar (Table 4, FIG. 4).
SMILES,Ki [1],"Binding selectivity for GABA α5 versus GABA α1, GABA α2, or GABA α3 [2]",GABA α5 functional potentiation (GABAA receptors (α5β2γ2)),average no. of errors ± SEM in retention test (aged-impaired (AI) rats),memory performance relative to vehicle control (aged-impaired (AI) rats),α5 in vitro efficacy (EC20) (α5-containing GABAA R),"effect on Ro 15-4513 binding in hippocampus and cerebellum (GABAA α5 receptor; 0.01-10 mg/kg, i.v.)",GABAA α5 receptors occupied in hippocampus (GABAA α5 receptor; at exposures behaviorally active in aged-impaired rats),"receptor occupancy depending on method (GABAA α5 receptor; exposure of 180 ng/g in hippocampus (1 mg/kg, i.v.))","ED50 of receptor occupancy, ratio method (GABAA α5 receptor; i.v., ratio method)","receptor occupancy at 10 mg/kg (GABAA α5 receptor; rat, iv, 10 mg/kg)","increase in hippocampal exposure ([3]; dose from 0.1 to 1 mg/kg, i.v.)","increase in exposure in hippocampus and plasma ([3]; dose from 1 to 3 mg/kg, ip, young and aged rats)","increase in hippocampal exposure ([3]; dose from 1 to 10 mg/kg, i.v.)","increase in plasma exposure ([3]; dose from 1 to 10 mg/kg, i.v.)"
COc1ncc(C#Cc2ncn3c2Cc2cnnn2-c2cc(Cl)ccc2-3)cc1C(F)(F)F [Compound 733],< 100 nM,>100-fold,–,–,–,–,–,–,–,–,–,–,–,–,–
COCc1nnn2c1Cc1c(C#Cc3cnc(C)[nH]3)ncn1-c1ccc(Cl)cc1-2 [Compound 739],< 100 nM,–,>50% @ 100 nM,–,–,–,–,–,–,–,–,–,–,–,–
"COC(=O)c1c(-c2ccccc2)cnnc1-c1ccccc1 [methyl 3,5-diphenylpyridazine-4-carboxylate]",–,–,–,1.31±0.40,significantly improved memory performance,+27,"blocked the binding of Ro154513 in the hippocampus but did not affect binding of Ro15413 in the cerebellum; also recorded: dose-dependently reduced Ro 15-4513 binding in hippocampus, without affecting cerebellum levels of Ro 15-4513",about 32%,32-39%,1.8 mg/kg,> 90%,12 fold,4.5 to 6.6 fold,~5 fold,12 fold
